# Measured values published in patent publication US20260285850A1, “SUBSTITUTED OXAZOLIDINONES AND IMIDAZOLINONES AS HERBICIDES” (FMC CORPORATION, priority 2023, published 2026).
# Tests used:
# Assay type in all cases: in vivo
# rice (Oryza sativa) = test: Test B flooded paddy test, visual plant response rating 0-100; conditions: 250 g ai/ha, Flood, applied to paddy water, evaluated after 13 days
# How it was run: (§1)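 Compounds applied to standing paddy water (3 cm above soil, maintained for the test duration) on 2-leaf-stage plants; visual rating vs controls at 13 days, greenhouse.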
# [1] = test system: barnyardgrass (Echinochloa crusgalli); test: as above; conditions: 250 g ai/ha, Flood, applied to paddy water, evaluated after 13 days
# How it was run: as §1
# [2] = test system: ducksalad (Heteranthera limosa); test: as above; conditions: 250 g ai/ha, Flood, applied to paddy water, evaluated after 13 days
# How it was run: as §1
# [3] = test system: sedge, umbrella (small-flower umbrella sedge, Cyperus difformis); test: as above; conditions: 250 g ai/ha, Flood, applied to paddy water, evaluated after 13 days
# How it was run: as §1
# [4] = test system: ryegrass, Italian (italian ryegrass, Lolium multiflorum); test: Test A postemergence application, visual injury rating 0-100; conditions: Postemergence, 10 days, 0 is no effect, 100 is complete control
# How it was run: (§2)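 Greenhouse test: loam/sand pots received a surfactant-containing formulation, as a preemergence directed soil spray or a postemergence spray on young plants. Injury was judged visually at day 10 relative to untreated controls.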
# kochia (Bassia scoparia) [5] = test: as above; conditions: Postemergence, 10 days, 0 is no effect, 100 is complete control
# How it was run: as §2
# [6] = test system: palmer (palmer amaranth, palmer pigweed, Amaranthus palmeri); test: as above; conditions: Postemergence, 10 days, 0 is no effect, 100 is complete control
# How it was run: as §2
# [7] = test system: foxtail, giant (giant foxtail, Setaria faberi); test: as above; conditions: 10 days, 0 is no effect, 100 is complete control
# How it was run: as §2
# corn (Zea mays) [8] = test: as above; conditions: Postemergence, 10 days, 0 is no effect, 100 is complete control
# How it was run: as §2
# [9] = test system: blackgrass (Alopecurus myosuroides); test: as above; conditions: Postemergence, 10 days, 0 is no effect, 100 is complete control
# How it was run: as §2
# [10] = test system: wheat (Triticum aestivum); test: as above; conditions: Postemergence, 10 days, 0 is no effect, 100 is complete control
# How it was run: as §2
# soybean (Glycine max) [11] = test: as above; conditions: Postemergence, 10 days, 0 is no effect, 100 is complete control
# How it was run: as §2
# [12] = test system: ragweed (common ragweed, Ambrosia artemisiifolia); test: as above; conditions: Postemergence, 10 days, 0 is no effect, 100 is complete control
# How it was run: as §2
# [13] = test system: galium (catchweed bedstraw, Galium aparine); test: as above; conditions: Postemergence, 10 days, 0 is no effect, 100 is complete control
# How it was run: as §2
# [14] = test system: oat, wild (wild oat, Avena fatua); test: as above; conditions: Postemergence, 10 days, 0 is no effect, 100 is complete control
# How it was run: as §2
# [15] = test system: barnyardgrass (Echinochloa crus-galli); test: as above; conditions: Postemergence, 10 days, 0 is no effect, 100 is complete control
# How it was run: as §2
# [16] = test system: ryegrass, Italian (italian ryegrass, Lolium multiflorum); test: Test A preemergence soil spray, visual injury rating 0-100; conditions: 10 days, 0 = no effect, 100 = complete control
# How it was run: as §2
# kochia (Bassia scoparia) [17] = test: as above; conditions: 10 days, 0 = no effect, 100 = complete control
# How it was run: as §2
# [18] = test system: palmer (palmer amaranth, palmer pigweed, Amaranthus palmeri); test: as above; conditions: 10 days, 0 = no effect, 100 = complete control
# How it was run: as §2
# [19] = test system: foxtail, giant (giant foxtail, Setaria faberi); test: as above; conditions: 10 days, 0 = no effect, 100 = complete control
# How it was run: as §2
# corn (Zea mays) [20] = test: as above; conditions: 10 days, 0 = no effect, 100 = complete control
# How it was run: as §2
# [21] = test system: blackgrass (Alopecurus myosuroides); test: as above; conditions: 10 days, 0 = no effect, 100 = complete control
# How it was run: as §2
# [22] = test system: wheat (Triticum aestivum); test: as above; conditions: 10 days, 0 = no effect, 100 = complete control
# How it was run: as §2
# soybean (Glycine max) [23] = test: as above; conditions: 10 days, 0 = no effect, 100 = complete control
# How it was run: as §2
# [24] = test system: ragweed (common ragweed, Ambrosia artemisiifolia); test: as above; conditions: 10 days, 0 = no effect, 100 = complete control
# How it was run: as §2
# [25] = test system: oat, wild (wild oat, Avena fatua); test: as above; conditions: 10 days, 0 = no effect, 100 = complete control
# How it was run: as §2
# [26] = test system: barnyardgrass (Echinochloa crus-galli); test: as above; conditions: 10 days, 0 = no effect, 100 = complete control
# How it was run: as §2
compound,measurement,setting,value
CC1(C(=O)NC2C=CC(C(=O)OCCS(C)(=O)=O)C2)CN(c2cc(F)cc(F)c2)C(=O)O1 (centres unmarked) [Compound 49],"Plant response rating, Rice (0 to 100 scale, 0 is no effect and 100 is complete control)",rice (Oryza sativa),55
same,"Plant response rating, Barnyardgrass (0 to 100 scale, 0 is no effect and 100 is complete control)",[1],80
same,"Plant response rating, Ducksalad (0 to 100 scale, 0 is no effect and 100 is complete control)",[2],90
same,"Plant response rating, Sedge, Umbrella (0 to 100 scale, 0 is no effect and 100 is complete control)",[3],95
same,"Ryegrass, Italian plant response rating (0 to 100 scale)",[4]; 125 g ai/ha,80
same,"Ryegrass, Italian plant response rating (0 to 100 scale)",[4]; 500 g ai/ha,90
same,Kochia plant response rating (0 to 100 scale),kochia (Bassia scoparia) [5]; 125 g ai/ha,70
same,Kochia plant response rating (0 to 100 scale),kochia (Bassia scoparia) [5]; 500 g ai/ha,80
same,"Amaranth, Palmer / Pigweed, Palmer plant response rating (0 to 100 scale)",[6]; 125 g ai/ha,90
same,"Amaranth, Palmer / Pigweed, Palmer plant response rating (0 to 100 scale)",[6]; 500 g ai/ha,100
same,"Foxtail, Giant plant response rating (0 to 100 scale)",[7]; 125 g ai/ha,90
same,"Foxtail, Giant plant response rating (0 to 100 scale)",[7]; 500 g ai/ha,90
same,Corn plant response rating (0 to 100 scale),corn (Zea mays) [8]; 125 g ai/ha,100
same,Corn plant response rating (0 to 100 scale),corn (Zea mays) [8]; 500 g ai/ha,100
same,Blackgrass plant response rating (0 to 100 scale),[9]; 125 g ai/ha,90
same,Blackgrass plant response rating (0 to 100 scale),[9]; 500 g ai/ha,100
same,Wheat plant response rating (0 to 100 scale),[10]; 125 g ai/ha,90
same,Wheat plant response rating (0 to 100 scale),[10]; 500 g ai/ha,90
same,Soybean plant response rating (0 to 100 scale),soybean (Glycine max) [11]; 125 g ai/ha,90
same,Soybean plant response rating (0 to 100 scale),soybean (Glycine max) [11]; 500 g ai/ha,90
same,Ragweed plant response rating (0 to 100 scale),[12]; 125 g ai/ha,70
same,Ragweed plant response rating (0 to 100 scale),[12]; 500 g ai/ha,70
same,Galium plant response rating (0 to 100 scale),[13]; 125 g ai/ha,70
same,Galium plant response rating (0 to 100 scale),[13]; 500 g ai/ha,80
same,"Oat, Wild plant response rating (0 to 100 scale)",[14]; 125 g ai/ha,90
same,"Oat, Wild plant response rating (0 to 100 scale)",[14]; 500 g ai/ha,90
same,Barnyardgrass plant response rating (0 to 100 scale),[15]; 125 g ai/ha,100
same,Barnyardgrass plant response rating (0 to 100 scale),[15]; 500 g ai/ha,100
same,"Ryegrass, Italian plant response rating (0 to 100 scale)",[16]; 125 g ai/ha,80
same,"Ryegrass, Italian plant response rating (0 to 100 scale)",[16]; 500 g ai/ha,100
same,Kochia plant response rating (0 to 100 scale),kochia (Bassia scoparia) [17]; 125 g ai/ha,90
same,Kochia plant response rating (0 to 100 scale),kochia (Bassia scoparia) [17]; 500 g ai/ha,100
same,"Amaranth, Palmer plant response rating (0 to 100 scale)",[18]; 125 g ai/ha,90
same,"Amaranth, Palmer plant response rating (0 to 100 scale)",[18]; 500 g ai/ha,100
same,"Foxtail, Giant plant response rating (0 to 100 scale)",[19]; 125 g ai/ha,90
same,"Foxtail, Giant plant response rating (0 to 100 scale)",[19]; 500 g ai/ha,100
same,Corn plant response rating (0 to 100 scale),corn (Zea mays) [20]; 125 g ai/ha,80
same,Corn plant response rating (0 to 100 scale),corn (Zea mays) [20]; 500 g ai/ha,90
same,Blackgrass plant response rating (0 to 100 scale),[21]; 125 g ai/ha,70
same,Blackgrass plant response rating (0 to 100 scale),[21]; 500 g ai/ha,80
same,Wheat plant response rating (0 to 100 scale),[22]; 125 g ai/ha,90
same,Wheat plant response rating (0 to 100 scale),[22]; 500 g ai/ha,100
same,Soybean plant response rating (0 to 100 scale),soybean (Glycine max) [23]; 125 g ai/ha,80
same,Soybean plant response rating (0 to 100 scale),soybean (Glycine max) [23]; 500 g ai/ha,90
same,Ragweed plant response rating (0 to 100 scale),[24]; 125 g ai/ha,40
same,Ragweed plant response rating (0 to 100 scale),[24]; 500 g ai/ha,90
same,"Oat, Wild plant response rating (0 to 100 scale)",[25]; 125 g ai/ha,80
same,"Oat, Wild plant response rating (0 to 100 scale)",[25]; 500 g ai/ha,90
same,Barnyardgrass plant response rating (0 to 100 scale),[26]; 125 g ai/ha,90
same,Barnyardgrass plant response rating (0 to 100 scale),[26]; 500 g ai/ha,100
